Experimental data taken from patent US20140242180A1, “NANOPARTICLES FOR CONTROLLING BLEEDING AND DRUG DELIVERY” (CASE WESTERN RESERVE UNIVERSITY, priority 2011, published 2014).
“Also recorded” adds a separate entry of the source.

Tested on: activated platelets
Assay: in vitro screening of activated labeled platelets binding to polymer-modified surfaces
Type: cell-based
Conditions: preliminary work; PEG 4600
Source text: An in vitro system was developed for high throughput screening of the coagulation efficiency of the synthetic platelets with the platelets labeled using CellTracker green following to facilitate ease of analysis. Essentially, this assay involves activating platelets which have been previously labeled with CellTracker and looking at the number that bind to surfaces modified with a polymer systems under agitation. This assay was validated with collagen. This system allowed one to efficiently and independently vary the PEG molecular weight and RGD motif (i.e. RGD, RGDS, and GRGDS).

**Q.** Which “adhesion and aggregation of activated platelets” value does the source give for GRGDS [GRGDS peptide] here?
**A.** efficient adhesion and aggregation; also recorded: good binding and adhesion
